Data from the NIST ThermoML archive (doi:10.1021/je0504156).

Columns and labels:
[1] = 101 kPa, Liquid
[2] = xn = mol fraction of the nth substance listed; settings: 101 kPa, Liquid

OCCO [1,2-ethanediol]
[1]
Settings | mass density [kg/m3] | viscosity [mPa·s]
308.15 K | 1101.88 | 11.19
313.15 K | 1098.33 | 9.444
318.15 K | 1094.75 | 7.972
323.15 K | 1091.16 | 6.794
333.15 K | 1083.94 | 5.065
343.15 K | 1074.53 | 3.879
353.15 K | 1069.72 | 3.058

OCCO [1,2-ethanediol] + Cc1cccc(O)c1
[2], x2 = 0
Settings | mass density [kg/m3] | viscosity [mPa·s]
308.15 K | 1101.88 | 11.19
313.15 K | 1098.33 | 9.444
318.15 K | 1094.75 | 7.972
323.15 K | 1091.16 | 6.794
333.15 K | 1083.94 | 5.065
343.15 K | 1074.53 | 3.879
353.15 K | 1069.72 | 3.058

Cc1cccc(O)c1 [3-methylphenol]
[1]
Settings | mass density [kg/m3] | viscosity [mPa·s]
308.15 K | 1021.64 | 7.701
313.15 K | 1017.63 | 6.12
318.15 K | 1013.6 | 5.022
323.15 K | 1009.56 | 4.158
328.15 K | 1005.93 | 3.518
333.15 K | 1001.44 | 2.98
343.15 K | 991.33 | 2.231
353.15 K | 985.42 | 1.759

Cc1cccc(O)c1 [3-methylphenol] + CO
[2]
Settings | mass density, 308.15 K [kg/m3] | mass density, 313.15 K [kg/m3] | mass density, 318.15 K [kg/m3] | mass density, 323.15 K [kg/m3] | mass density, 328.15 K [kg/m3] | viscosity, 308.15 K [mPa·s] | viscosity, 313.15 K [mPa·s] | viscosity, 318.15 K [mPa·s] | viscosity, 323.15 K [mPa·s] | viscosity, 328.15 K [mPa·s]
x1 = 0.0999 | 838.66 | 834.09 | 829.48 | 824.84 | 820.44 | 0.725 | 0.676 | 0.621 | 0.588 | 0.533
x1 = 0.1999 | 880.62 | 876.22 | 871.78 | 867.32 | 863.14 | 0.976 | 0.906 | 0.835 | 0.783 | 0.72
x1 = 0.2998 | 914.11 | 909.92 | 905.55 | 901.14 | 897.17 | 1.319 | 1.205 | 1.1 | 1.011 | 0.933
x1 = 0.3999 | 939.8 | 935.58 | 931.38 | 927.14 | 923.28 | 1.778 | 1.577 | 1.419 | 1.29 | 1.18
x1 = 0.4998 | 960.97 | 956.82 | 952.74 | 948.57 | 944.75 | 2.367 | 2.079 | 1.835 | 1.646 | 1.459
x1 = 0.6001 | 977.35 | 973.31 | 969.31 | 965.28 | 961.59 | 2.958 | 2.556 | 2.243 | 1.99 | 1.788
x1 = 0.6998 | 991.84 | 987.87 | 983.92 | 979.59 | 976.07 | 3.767 | 3.228 | 2.789 | 2.437 | 2.144
x1 = 0.7999 | 1002.99 | 998.97 | 994.93 | 990.88 | 987.18 | 4.783 | 4.007 | 3.418 | 2.936 | 2.551
x1 = 0.8999 | 1013.19 | 1009.18 | 1005.13 | 1001.1 | 997.41 | 6.06 | 4.978 | 4.153 | 3.507 | 2.995
x1 = 1 | 1021.64 | 1017.63 | 1013.6 | 1009.56 | 1005.93 | 7.701 | 6.12 | 5.022 | 4.158 | 3.518

CO [methanol]
[1]
Settings | mass density [kg/m3] | viscosity [mPa·s]
308.15 K | 776.92 | 0.476
313.15 K | 772.13 | 0.445
318.15 K | 767.31 | 0.421
323.15 K | 762.46 | 0.395
328.15 K | 757.85 | 0.372

CO [methanol] + Cc1cccc(O)c1
[2], x2 = 0
Settings | mass density [kg/m3] | viscosity [mPa·s]
308.15 K | 776.92 | 0.476
313.15 K | 772.13 | 0.445
318.15 K | 767.31 | 0.421
323.15 K | 762.46 | 0.395
328.15 K | 757.85 | 0.372
